The CheMixHub ionic liquid set

Assay: xn = mol fraction of the nth substance listed

ClCCl + CCCC[n+]1ccn(C)c1.O=S(=O)([N-]S(=O)(=O)C(F)(F)F)C(F)(F)F
298 K, 101 kPa
Conditions | electrical conductivity [S/m]
x1 = 0.8744 | 1.36
x1 = 0.9287 | 0.98
x1 = 0.9459 | 0.797

CCC(O)CO (stereo not drawn) + CCCC[N+](C)(C)C.O=S(=O)([N-]S(=O)(=O)C(F)(F)F)C(F)(F)F
Conditions | viscosity [mPa·s]
328.15 K, 101 kPa, x1 = 1 | 10.3

CC[n+]1ccn(C)c1.O=S(=O)([N-]S(=O)(=O)C(F)(F)F)C(F)(F)F + F[B-](F)(F)F.[Li+]
101 kPa, x1 = 1
Conditions | electrical conductivity [S/m]
288.15 K | 0.611
298.15 K | 0.883
333.15 K | 2.18

CO + CC[n+]1ccn(C)c1.O=S(=O)([N-]S(=O)(=O)C(F)(F)F)C(F)(F)F
100 kPa, x1 = 1
Conditions | viscosity [mPa·s]
298.15 K | 0.55
308.15 K | 0.48
318.15 K | 0.43

CC[n+]1ccn(C)c1.F[B-](F)(F)F + CN(C)C=O
101 kPa
Conditions | viscosity [mPa·s]
303.15 K, x2 = 0.2016 | 16.52
313.15 K, x2 = 0 | 20.41
313.15 K, x2 = 0.3987 | 7.35
313.15 K, x2 = 0.5005 | 5.397
313.15 K, x2 = 0.7997 | 1.806
323.15 K, x2 = 0 | 15.35
323.15 K, x2 = 0.2994 | 7.73
323.15 K, x2 = 0.5005 | 4.475
323.15 K, x2 = 0.6004 | 3.226
323.15 K, x2 = 0.8999 | 1.01

C[N+](C)(C)Cc1ccccc1.[Cl-] + O=C([O-])c1ccccc1O.[Na+] + O
viscosity [mPa·s], 100 kPa
Conditions | 298.15 K | 303.15 K | 308.15 K | 313.15 K | 318.15 K
x1 = 9.698e-05, x2 = 0.001545 | 0.924 | 0.833 | 0.75 | 0.651 | 0.564
x1 = 9.701e-05, x2 = 0.00127 | 0.916 | 0.827 | 0.744 | 0.648 | 0.561
x1 = 9.703e-05, x2 = 0.0009982 | 0.91 | 0.821 | 0.739 | 0.642 | 0.557
x1 = 9.706e-05, x2 = 0.0007245 | 0.905 | 0.816 | 0.734 | 0.637 | 0.551
x1 = 9.709e-05, x2 = 0.0004525 | 0.9 | 0.811 | 0.729 | 0.633 | 0.547
x1 = 9.711e-05, x2 = 0.0001803 | 0.896 | 0.807 | 0.725 | 0.629 | 0.543
x1 = 0.0002915, x2 = 0.001548 | 0.926 | 0.836 | 0.753 | 0.648 | 0.56
x1 = 0.0002916, x2 = 0.001 | 0.915 | 0.824 | 0.742 | 0.639 | 0.552
x1 = 0.0002916, x2 = 0.001272 | 0.921 | 0.83 | 0.747 | 0.644 | 0.556
x1 = 0.0002917, x2 = 0.0007258 | 0.909 | 0.819 | 0.736 | 0.635 | 0.547
x1 = 0.0002918, x2 = 0.0004533 | 0.903 | 0.814 | 0.732 | 0.63 | 0.544
x1 = 0.0002919, x2 = 0.0001807 | 0.898 | 0.809 | 0.727 | 0.625 | 0.539
x1 = 0.0004867, x2 = 0.001551 | 0.932 | 0.843 | 0.759 | 0.664 | 0.577
x1 = 0.0004868, x2 = 0.001275 | 0.926 | 0.836 | 0.753 | 0.659 | 0.572
x1 = 0.0004869, x2 = 0.001002 | 0.919 | 0.831 | 0.748 | 0.654 | 0.568
x1 = 0.0004871, x2 = 0.0007272 | 0.914 | 0.825 | 0.743 | 0.648 | 0.563
x1 = 0.0004872, x2 = 0.0004542 | 0.907 | 0.82 | 0.737 | 0.644 | 0.558
x1 = 0.0004873, x2 = 0.000181 | 0.903 | 0.815 | 0.732 | 0.64 | 0.554

CC[n+]1ccn(C)c1.O=S(=O)([N-]S(=O)(=O)C(F)(F)F)C(F)(F)F + F[P-](F)(F)(F)(F)F.[Li+]
101 kPa, x1 = 1
Conditions | electrical conductivity [S/m]
288.15 K | 0.611
298.15 K | 0.883
333.15 K | 2.18
